Counter-ions that a name gives are not always drawn.
How the values were obtained:
[1] = system: VEGF-induced edema; experiment: Miles assay, VEGF as agonist; assay type: in vivo, Sprague-Dawley rats; conditions: VEGF 200 ng/injection site, vehicle 12
Protocol: A rodent model of vascular edema, the Miles assay, was used to screen compounds for their ability to inhibit VEGF-induced edema. […] Sprague-Dawley rats were first injected IV with vehicle alone or test agent, followed by IV injection of Evans blue dye, followed by intradermal injections of saline and VEGF (200 ng/injection site) along both shaved flanks. […] The ability of test agent to influence vascular edema was tested as above, except that the ability to block edema was tested using either VEGF or histamine as the agonist (200 ng and 10 µg/injection site, respectively).

[2] = system: CT-26 Colon carcinoma cells; experiment: CT-26 colon carcinoma lung metastases model, net tumor burden; assay type: in vivo, Balb/C mice
Protocol: FIGURE 3 (omitted) illustrates the effect of compounds administered in conjunction with doxorubicin in an in vivo model of metastatic colon cancer (CT-26 adenocarcinoma). Syngeneic CT-26 Colon carcinoma cells were injected I.V. in order to establish lung metastases in Balb/C mice. Beginning 10 days after cells were injected, test agents were given I.P. every 3 days for 3 cycles. Animals were sacrificed at day 20, lungs were collected, and weighed. Net tumor burden is the weight of tumor-bearing lungs minus the average weight of normal control lungs. N=5/group, p<0.02. In the experiment compound A is 6,7-bis(4-hydroxyphenyl)-pteridin-4-ylamine sulfate salt, and compound B is 6,7-diphenyl-pteridine-2,4-diamine.
FIGURE 4 (omitted) illustrates the effects of compounds of the present invention for co-drug therapy with Taxotere as described herein. Syngeneic CT-26 Colon carcinoma cells were used in order to establish lung metastases in Balb/C mice as described above. 6,7-bis(4-hydroxyphenyl)-pteridin-4-ylamine, sulfate salt (compound A) and 6,7-diphenyl-pteridine-2,4-diamine (compound B) were used.
FIGURE 6 (omitted) illustrates the effect of compounds administered in conjunction with docetaxel in the in vivo model of metastatic colon cancer (CT-26 adenocarcinoma) described for FIGURE 4. 2,3-Bis(3,4-dihydroxyphenyl)-pyrido[2,3-b]pyrazin-6-ylamine dihydrochloride salt (compound C) from FIGURE 4 is shown in FIGURE 6 as compound C. N=5/group, p<0.02.
(§1) Syngeneic CT-26 Colon carcinoma cells were injected I. V. in order to establish lung metastases in Balb/C mice. Beginning 10 days after cells were injected, indicated test agents were given I. P. every 3 days for 3 cycles. Animals were sacrificed at day 20, lungs were collected, and weighed. Net tumor burden is the weight of tumor-bearing lungs minus the average weight of normal control lungs. N=5/group, p < 0.02.
as §1, with “FIGURE 4 (omitted) illustrates the effects of the compounds of the present invention for co- drug therapy with docetaxel (Taxoteree-in this example formulated in 12. 5% Cremaphore: 12.5% Ethanol: 75% normal saline) as described herein. Syngeneic” for “Syngeneic”, “I.V.” for “I. V.”
FIGURE 6 (omitted) illustrates the effect of compounds administered in conjunction with docetaxel (Taxoreree-in this example formulated in 12.5% Cremaphore: 12.5% Ethanol:75% normal saline) in the in vivo model of metastatic colon cancer (CT-26 adenocarcinoma) described for FIGURE 4 (omitted). […] N=5/group,p < 0.02.
Similarly, 2,3-bis (4-hydroxyphenyl)-pyrido [2,3-b] pyrazin-6-ylamine dihydrochloride salt inhibited tumor burden alone or with co-drug therapy using docetaxel (Taxotere@~in this example formulated in 12.5% Cremaphore : 12.5% Ethanol:75% normal saline) as described herein. Syngeneic CT-26 Colon carcinoma cells were injected I.V. in order to establish lung metastases in Balb/C mice. Beginning 10 days after cells were injected, indicated test agents were given I.P. every 3 days for 3 cycles. Animals were sacrificed at day 20, lungs were collected, and weighed.

[3] = Acute myocardial infarct model, 60 min LAD occlusion followed by reperfusion; assay type: in vivo, Sprague-Dawley rats; conditions: for Infarct (% AAR, mean ± SEM): 24 hr post-treatment
Protocol: Myocardial infarcts were created in Sprague-Dawley rats (200-300 g body weight) by a 60 min occlusion of the LAD followed by LAD reperfusion. At 90 min post-reperfusion, either vehicle alone or test agents were injected IV. At 24 hr post-treatment, the ischemic zone (area at-risk, AAR) was delineated by re-ligation of the LAD followed by IV injection of alkali blue dye, after which hearts were sectioned along the short axis and stained using triphenyltetrazolium chloride to delineate viable from infarcted myocardium. Photographic images were then analyzed using morphometric software to calculate infarct area as a percent of the at-risk area.
In one group, 3-[2,4-diamino-6-(3-hydroxyphenyl)pteridin-7-yl] phenol dihydrochloride salt was administered at both 60 and 240 min post-occlusion.

[4] = Cerebral stroke model, permanent middle cerebral artery occlusion; assay type: in vivo, mice; conditions: 1 mg/kg BW IV 60 min after ligation; for Infarct area in mm^3 (mean ± SEM): twenty four hours later; for % Infarct reduction: versus vehicle of the same study
Protocol: Cerebral strokes were created in mice by permanent ligation of the middle cerebral artery using a cauterizing tool, followed 60 min later by IV injection of either vehicle alone (50% PEG400 in water) or test agents (at 1 mg/kg BW). Twenty four hours later, brains were sectioned and stained using triphenyltetrazolium chloride to delineate viable from infarcted tissue.

[5] = in combination with docetaxel, I.P. every 3 days for 3 cycles, day 20
[6] = stand alone agent, docetaxel co-drug studies (FIGURES 4 and 6), I.P. every 3 days for 3 cycles, day 20
[7] = 0.1 mg/kg BW IV at 90 min post-reperfusion
[8] = 0.1 mg/kg BW, versus vehicle of the same study
[9] = 1.0 mg/kg BW IV at 90 min post-reperfusion
[10] = 1.0 mg/kg BW, versus vehicle of the same study

In the case of Oc1nc(O)c2nc(-c3ccccc3)c(-c3ccc(Oc4ccc(-c5nc6c(O)nc(O)nc6nc5-c5ccccc5)cc4)cc3)nc2n1, the “Score (scale of 0-12)” value ([1]; 1.5 mg/kg IV) is reported as 3.

In the case of Cl.Nc1cncc2nc(-c3ccc(O)c(O)c3)c(-c3ccc(O)c(O)c3)nc12 [2,3-(3,4-Dihydroxyphenyl)-pyrido[3,4-b]pyrazin-8-ylamine], the “Score (scale of 0-12)” value ([1]; 0.01 mg/kg IV) is reported as 6.

For Cl.Cl.Nc1ccc2nc(-c3ccc(O)cc3)c(-c3ccc(O)cc3)nc2n1 [2,3-bis(4-hydroxyphenyl)-pyrido[2,3-b]pyrazin-6-ylamine dihydrochloride salt], the “reduction of tumor burden” value [2, 5] was “greater than 78%” and the “reduction of tumor burden” value [2, 6] was 63%.

For O=C(Cc1ccc(O)c(O)c1)Nc1ccccc1-c1cc2ccccc2[nH]1 [2-(3,4-Dihydroxy-phenyl)-N-[2-(1H-indol-2-yl)-phenyl]-acetamide], the “Score (scale of 0-12)” value ([1]; 0.5 mg/kg IV) was 7.

With O=C(Cc1ccc(O)cc1)Nc1ccccc1-c1cc2ccccc2[nH]1 [2-(4-Hydroxy-phenyl)-N-[2-(1H-indol-2-yl)-phenyl]-acetamide] the “Score (scale of 0-12)” value ([1]; 1.5 mg/kg IV) was 2.

For O=S(=O)(O)c1cc(Nc2ncnc3ncc(-c4ccccc4)nc23)ccc1O [2-Hydroxy-5-(6-phenyl-pteridin-4-ylamino)-benzenesulfonic acid], the “Score (scale of 0-12)” value ([1]; 0.5 mg/kg IV) was 6.

In the case of O=C1c2ccccc2C(=O)N1c1ccccc1-c1cc2ccccc2[nH]1 [2-[2-(1H-indol-2-yl)-phenyl]-isoindole-1,3-dione], the “Score (scale of 0-12)” value ([1]; 1.5 mg/kg IV) is reported as 3.

For O=C(Nc1ccccc1-c1cc2ccccc2[nH]1)c1ccc(O)c(O)c1 [3,4-Dihydroxy-N-[2-(1H-indol-2-yl)-phenyl]-benzamide], the “Score (scale of 0-12)” value ([1]; 0.1 mg/kg IV) was 6.

With O=C(CCc1ccc(O)cc1)Nc1ccccc1-c1cc2ccccc2[nH]1 [3-(4-Hydroxy-phenyl)-N-[2-(1H-indol-2-yl)-phenyl]-propionamide] the “Score (scale of 0-12)” value ([1]; 1.5 mg/kg IV) was 2.

For Br.Br.Nc1nc(N)c2nc(-c3cccc(O)c3)c(-c3cccc(O)c3)nc2n1 [3-[2,4-Diamino-6-(3-hydroxyphenyl)pteridin-7-yl]phenol dibromide salt], the “Infarct (% AAR, mean ± SEM)” value ([3]; 0.5 mg/kg BW IV at 90 min post-reperfusion, Study 5) was 31.6 ± 6.2 % AAR and the “% Infarct reduction” value ([3]; 0.5 mg/kg BW, versus vehicle, Study 5) was 42%.

With Cl.Cl.Nc1nc(N)c2nc(-c3cccc(O)c3)c(-c3cccc(O)c3)nc2n1 [3-[2,4-diamino-6-(3-hydroxyphenyl)pteridin-7-yl] phenol dihydrochloride salt] the “Score (scale of 0-12)” value ([1]; 0.01 mg/kg IV) was 3, the “Score (scale of 0-12)” value ([1]; 0.1 mg/kg IV) was 4 and the “Score (scale of 0-12)” value ([1]; 1 mg/kg IV) was 4. For the same compound, the “Infarct (% AAR, mean ± SEM)” value [3, 7] was 37.7 ± 5.8 % AAR, the “% Infarct reduction” value [3, 8] was 30% and the “Infarct (% AAR, mean ± SEM)” value [3, 9] was 46.4 ± 2.6 % AAR. The “% Infarct reduction” value [3, 10] was “Not significant”.

For Nc1nc(N)c2nc(-c3ccc(O)cc3)cnc2n1 [4-(2,4-Diamno-pteridin-6-yl)-phenol (sulfate salt)], the “Score (scale of 0-12)” value ([1]; 5 mg/kg IV, lower score = greater anti-edema activity) was 2.

For Cl.Nc1ncnc2nc(-c3ccc(O)c(O)c3)c(-c3ccc(O)c(O)c3)nc12 [4-[4-amino-6-(3,4-dihydroxyphenyl)pteridin-7-yl]benzene-1,2-diol chloride salt], the “Infarct (% AAR, mean ± SEM)” value [3, 7] was 37.1 ± 2.6 % AAR, the “% Infarct reduction” value [3, 8] was 40% and the “Infarct (% AAR, mean ± SEM)” value [3, 9] was 40.1 ± 2.0 % AAR. For the same compound, the “% Infarct reduction” value [3, 10] was 35%.

With Cl.Oc1ccc(Nc2ncnc3ncc(-c4ccccc4)nc23)c2cccnc12 [5-(6-Phenyl-pteridin-4-ylamino)-quinolin-8-ol hydrochloride salt] the “Score (scale of 0-12)” value ([1]; 0.5 mg/kg IV) was 5.

With Cl.Nc1ncnc2nc(-c3cccc(O)c3)c(-c3cccc(O)c3)nc12 [6,7-Bis(3-hydroxyphenyl)-pteridine-4-ylamine hydrochloride salt] the “Infarct (% AAR, mean ± SEM)” value [3, 7] was 39.1 ± 4.2 % AAR, the “% Infarct reduction” value [3, 8] was 37% and the “Infarct (% AAR, mean ± SEM)” value [3, 9] was 39.1 ± 7.5 % AAR. The “% Infarct reduction” value [3, 10] was 37%.

With Oc1cccc(-c2nc3nc(O)nc(O)c3nc2-c2cccc(O)c2)c1 [6,7-Bis-(3-hydroxy-phenyl)-pteridine-2,4-diol] the “Score (scale of 0-12)” value ([1]; 1.5 mg/kg IV) was 3.

With Nc1ncnc2nc(-c3ccccn3)c(-c3ccccn3)nc12 [6,7-Di-pyridin-2-yl-pteridin-4-ylamine] the “Infarct area in mm^3 (mean ± SEM)” value [4] was 27.2 ± 2.63 mm^3 and the “% Infarct reduction” value [4] was “Not significant”.

For Oc1nc(O)c2nc(-c3ccccc3)c(-c3ccccc3)nc2n1 [6,7-Diphenyl-pteridine-2,4-diol], the “Infarct area in mm^3 (mean ± SEM)” value [4] was 20.2 ± 4.19 mm^3 and the “% Infarct reduction” value [4] was 52%.

With Nc1nc(N)c2nc(-c3ccc(O)c(O)c3)c(-c3ccc(O)c(O)c3)nc2n1 [6,7-bis(3,4-dihydroxyphenyl)-pteridine-2,4,-diamine, hydrochloride salt] the “Infarct (% AAR, mean ± SEM)” value ([3]; 1.5 mg/kg BW IV at 90 min post-reperfusion) was 36.3 ±6.3 % AAR and the “% Infarct reduction” value ([3]; 1.5 mg/kg BW, versus vehicle of the same study) was 33%.

With Nc1nc(N)c2nc(CNCc3ccc4ccccc4c3)cnc2n1 [6-{[(Naphthalen-2-ylmethyl)-amino]-methyl}-pteridine-2,4-diamine] the “Score (scale of 0-12)” value ([1]; 0.1 mg/kg IV) was 4.

In the case of Nc1nc(N)c2nc(CNCc3ccccn3)cnc2n1 [6-{[(Pyridin-2-ylmethyl)-amino]-methyl}-pteridine-2,4-diamine], the “Score (scale of 0-12)” value ([1]; 0.1 mg/kg IV) is reported as 4.

In the case of O=C(Nc1ccccc1C1Cc2ccccc2N1)c1ccccc1O (stereo not shown) [N-[2-(2,3-Dihydro-1H-indol-2-yl)-phenyl]-2-hydroxy-benzamide], the “Score (scale of 0-12)” value ([1]; 0.5 mg/kg IV) is reported as 5.

In the case of Nc1nc(N)c2nc(-c3ccccc3)c(-c3ccccc3)nc2n1 [compound B, 6,7-diphenyl-pteridine-2,4-diamine], the “reduction of tumor burden” value ([2]; in combination with doxorubicin as printed, FIGURE 4 experiment (docetaxel study)) is reported as “greater than 70%”, the “reduction of tumor burden” value ([2]; in combination with doxorubicin, FIGURE 3 experiment, I.P. every 3 days for 3 cycles, day 20) is reported as “greater than 65%” and the “tumor burden in lungs (photo of representative lung samples)” value ([2]; plus doxorubicin, compared with vehicle (control) lungs, FIGURE 5) is reported as “dramatic reduction in tumor burden”. For the same compound, the “reduction of tumor burden” value ([2]; stand alone agent, FIGURE 3 experiment (doxorubicin study), I.P. every 3 days for 3 cycles, day 20) was 35% and the “reduction of tumor burden” value [2, 6] was 20%.

With Cl.Cl.Nc1ccc2nc(-c3ccc(O)c(O)c3)c(-c3ccc(O)c(O)c3)nc2n1 [compound C, 2,3-Bis(3,4-dihydroxyphenyl)-pyrido[2,3-b]pyrazin-6-ylamine dihydrochloride salt] the “reduction of tumor burden” value [2, 5] was “greater than 85%” and the “reduction of tumor burden” value [2, 6] was 65%.

Reference: EP2039683B1, “Vasculostatic agents and methods of use thereof” (Targegen, Inc., priority 2002, dated 2004)
